Converted amounts (≈) assume the structure as drawn. The source made the active and inactive calls. The rule behind the calls is not given here.
What was measured:
HeLa [1] = experiment: Decrease in lactate production in HeLa cells by ELISA; format: functional, cell-based; conditions: Homo sapiens
HeLa [2] = experiment: Inhibition of metabolic activity in HeLa cells assessed as MTT reduction after 48 hrs; format: functional, cell-based; conditions: Homo sapiens
Osteoblast [3] = experiment: Inhibition of metabolic activity in primary human osteoblasts in presence of 10% FCS; format: functional
MG-63 [4] = experiment: Inhibition of metabolic activity in MG63 cells assessed as MTT reduction after 48 hrs; format: functional, cell-based; conditions: Homo sapiens, MG-63, 48 h
MG-63 [5] = experiment: Antiproliferative effect against MG63 cells assessed as BrdU incorporation into DNA after 48 hrs after 48 hrs; format: functional, cell-based; conditions: Homo sapiens, MG-63, 48 h
[6] = Cytotoxicity against primary human osteoblasts at 400 ug/ml assessed as LDH release after 24 hrs; conditions: osteoblast, at 400 µg/mL
MG-63 [7] = experiment: Decrease in lactate production in MG63 cells by ELISA; format: functional, cell-based; conditions: Homo sapiens
[8] = Antiproliferative effect against primary human osteoblasts assessed as BrdU incorporation into DNA after 48 hrs; format: functional, cell-based; conditions: Osteoblast
Osteoblast [9] = experiment: Antiproliferative effect against primary human osteoblasts in presence of 10% FCS; format: functional, cell-based
MG-63 [10] = experiment: Increase in lactate production in MG63 cells at 400 ug/ml by ELISA relative to control; format: functional, Homo sapiens
HeLa [11] = experiment: Antiproliferative effect against HeLa cells after 48 hrs; format: functional, cell-based; conditions: Homo sapiens
Osteoblast [12] = experiment: Inhibition of metabolic activity in primary human osteoblasts assessed as MTT reduction after 48 hrs; format: functional, cell-based
Osteoblast [13] = experiment: Increase in lactate production in primary human osteoblasts at 6 ug/ml by ELISA; format: functional
Osteoblast [14] = experiment: Increase in lactate production in primary human osteoblasts at 400 ug/ml by ELISA relative to control; format: functional
Osteoblast [15] = experiment: Antiproliferative effect against primary human osteoblasts assessed as BrdU incorporation into DNA at 10 ug/ml after 48 hrs; format: functional, cell-based
Osteoblast [16] = experiment: Increase in lactate production in primary human osteoblasts at 25 to 50 ug/ml by ELISA; format: functional
[17] = Cytotoxicity against primary human osteoblasts at 200 ug/ml assessed as LDH release after 24 hrs; format: cell-based; conditions: osteoblast
[18] = Cytotoxicity against primary human osteoblasts at 100 ug/ml assessed as LDH release after 24 hrs; format: cell-based; conditions: osteoblast
HeLa [19] = experiment: Decrease in lactate production in HeLa cells at 400 ug/ml by ELISA; format: functional, Homo sapiens; design: scale not given: the % may be the effect or the level left
Osteoblast [20] = experiment: Increase in lactate production in primary human osteoblasts at 190 ug/ml by ELISA; format: functional
MG-63 [21] = experiment: Decrease in lactate production in MG63 cells at 400 ug/ml by ELISA; format: functional, Homo sapiens; design: scale not given: the % may be the effect or the level left

## CCC[C@@H]1C[C@@H](C(=O)N[C@@H]([C@H]2O[C@H](SC)[C@H](O)[C@@H](O)[C@H]2O)[C@H](C)Cl)N(C)C1 [CLINDAMYCIN]
HeLa [1]
  Activity: Active
HeLa [2]
  IC20: 80 µg/mL (≈ 188 µM)
  IC50: 200 µg/mL (≈ 471 µM)
Osteoblast [3]
  IC20: 20 µg/mL
MG-63 [4]
  IC20: 200 µg/mL (≈ 471 µM)
  IC50: > 400 µg/mL
MG-63 [5]
  IC20: 160 µg/mL (≈ 376 µM)
  IC50: 250 µg/mL (≈ 588 µM)
[6]
  Activity: 10%
MG-63 [7]
  Activity: Active
[8]
  IC20: 40 µg/mL (≈ 94.1 µM)
  IC50: 150 µg/mL (≈ 353 µM)
Osteoblast [9]
  Activity: Active
MG-63 [10]
  Activity: 60%
HeLa [11]
  IC20: 230 µg/mL (≈ 541 µM)
  IC50: > 400 µg/mL
Osteoblast [12]
  IC20: 340 µg/mL (≈ 800 µM)
  IC50: > 400 µg/mL

## CC[C@H]1OC(=O)[C@H](C)[C@@H](O[C@H]2C[C@@](C)(OC)[C@@H](O)[C@H](C)O2)[C@H](C)[C@@H](O[C@@H]2O[C@H](C)C[C@H](N(C)C)[C@H]2O)[C@](C)(O)C[C@@H](C)C(=O)[C@H](C)[C@@H](O)[C@]1(C)O [ERYTHROMYCIN]
HeLa [2]
  IC20: 110 µg/mL (≈ 150 µM)
  IC50: 170 µg/mL (≈ 232 µM)
Osteoblast [3]
  IC20: 11 µg/mL
MG-63 [4]
  IC20: 180 µg/mL (≈ 245 µM)
  IC50: 310 µg/mL (≈ 422 µM)
MG-63 [5]
  IC20: 130 µg/mL (≈ 177 µM)
  IC50: 300 µg/mL (≈ 409 µM)
[6]
  Activity: 40%
[8]
  IC20: 30 µg/mL (≈ 40.9 µM)
  IC50: 180 µg/mL (≈ 245 µM)
Osteoblast [9]
  Activity: Active
MG-63 [10]
  Activity: 60%
HeLa [11]
  IC20: 210 µg/mL (≈ 286 µM)
  IC50: > 400 µg/mL
Osteoblast [12]
  IC20: 210 µg/mL (≈ 286 µM)
  IC50: > 400 µg/mL

## CC(=O)NC[C@H]1CN(c2ccc(N3CCOCC3)c(F)c2)C(=O)O1 [LINEZOLID]
Osteoblast [13]
  Activity: 13%
HeLa [2]
  IC20: 300 µg/mL (≈ 889 µM)
  IC50: > 400 µg/mL
MG-63 [4]
  IC20: 250 µg/mL (≈ 741 µM)
  IC50: > 400 µg/mL
Osteoblast [14]
  Activity: 120%
[8]
  IC20: 240 µg/mL (≈ 711 µM)
  IC50: > 400 µg/mL
Osteoblast [12]
  IC20: > 400 µg/mL
  IC50: > 400 µg/mL

## COc1c(N2C[C@@H]3CCCN[C@@H]3C2)c(F)cc2c(=O)c(C(=O)O)cn(C3CC3)c12 [MOXIFLOXACIN]
HeLa [2]
  IC20: 40 µg/mL (≈ 99.6 µM)
  IC50: 110 µg/mL (≈ 274 µM)
Osteoblast [15]
  Activity: Active
MG-63 [4]
  IC20: 30 µg/mL (≈ 74.7 µM)
  IC50: 170 µg/mL (≈ 423 µM)
MG-63 [5]
  IC20: 110 µg/mL (≈ 274 µM)
  IC50: 230 µg/mL (≈ 573 µM)
[6]
  Activity: 10%
[8]
  IC20: 80 µg/mL (≈ 199 µM)
  IC50: 160 µg/mL (≈ 399 µM)
HeLa [11]
  IC20: 90 µg/mL (≈ 224 µM)
  IC50: 320 µg/mL (≈ 797 µM)
Osteoblast [12]
  IC20: 190 µg/mL (≈ 473 µM)
  IC50: > 400 µg/mL
Osteoblast [16]
  Activity: 10%

## CO[C@H]1/C=C/O[C@@]2(C)Oc3c(C)c(O)c4c(O)c(c(/C=N/N5CCN(C)CC5)c(O)c4c3C2=O)NC(=O)/C(C)=C\C=C\[C@H](C)[C@H](O)[C@@H](C)[C@@H](O)[C@@H](C)[C@H](OC(C)=O)[C@@H]1C [RIFAMPIN]
Osteoblast [14]
  Activity: 40%
MG-63 [5]
  IC20: 120 µg/mL (≈ 146 µM)
  IC50: 240 µg/mL (≈ 292 µM)
[8]
  IC20: 30 µg/mL (≈ 36.5 µM)
  IC50: 130 µg/mL (≈ 158 µM)
HeLa [11]
  IC20: 180 µg/mL (≈ 219 µM)
  IC50: 270 µg/mL (≈ 328 µM)

## CC[C@H]1OC(=O)[C@H](C)[C@@H](O[C@H]2C[C@@](C)(OC)[C@@H](O)[C@H](C)O2)[C@H](C)[C@@H](O[C@@H]2O[C@H](C)C[C@H](N(C)C)[C@H]2O)[C@](C)(O)C[C@@H](C)/C(=N\OCOCCOC)[C@H](C)[C@@H](O)[C@]1(C)O [ROXITHROMYCIN]
HeLa [2]
  IC20: 30 µg/mL (≈ 35.8 µM)
  IC50: 90 µg/mL (≈ 108 µM)
MG-63 [4]
  IC20: 50 µg/mL (≈ 59.7 µM)
  IC50: 110 µg/mL (≈ 131 µM)
[17]
  Activity: 30%
MG-63 [5]
  IC20: 50 µg/mL (≈ 59.7 µM)
  IC50: 180 µg/mL (≈ 215 µM)
[6]
  Activity: 40%
[18]
  Activity: 20%
[8]
  IC20: 20 µg/mL (≈ 23.9 µM)
  IC50: 70 µg/mL (≈ 83.6 µM)
HeLa [11]
  IC20: 100 µg/mL (≈ 119 µM)
  IC50: 160 µg/mL (≈ 191 µM)
Osteoblast [12]
  IC20: 110 µg/mL (≈ 131 µM)
  IC50: 210 µg/mL (≈ 251 µM)

## CN(C)[C@@H]1C(O)=C(C(N)=O)C(=O)[C@@]2(O)C(O)=C3C(=O)c4c(O)cccc4[C@@](C)(O)[C@H]3C[C@@H]12 [TETRACYCLINE]
HeLa [19]
  Activity: 50%
Osteoblast [20]
  Activity: 30%
MG-63 [5]
  IC20: 60 µg/mL (≈ 135 µM)
  IC50: 180 µg/mL (≈ 405 µM)
[8]
  IC20: 60 µg/mL (≈ 135 µM)
  IC50: 180 µg/mL (≈ 405 µM)
MG-63 [21]
  Activity: 50%
HeLa [11]
  IC20: 200 µg/mL (≈ 450 µM)
  IC50: > 400 µg/mL

## GENTAMICIN
Osteoblast [9]
  Activity: inactive
